Laboratory results as given in article PMC8206213, “An L-2-hydroxyglutarate biosensor based on specific transcriptional regulator LhgR” (Nature Communications, 2021).
Several values for one entry are separate records, joined by “and”; a condition that tells them apart may be missing. Equal values may be shown once.

What was measured:
LHGFR0N7C = test: Influence of other compounds on the response of purified LHGFR0N7C to L-2-HG; assay type: binding, Pseudomonas putida W619
Outline: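 Purified L-2-HG biosensors were mixed 3:1 with test compounds in 50 mM Tris-HCl pH 7.4, excited at 430 nm, and the 528 nm (Venus)/485 nm (mTFP) emission was read. Responses were fitted with a Hill model giving apparent Kd and Hill slope.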

[1] = test system: LHGFR0N7C expressed in E. coli BL21(DE3); test: Specificity of LHGFR0N7C expressed in E. coli BL21(DE3), 1 mM compounds; assay type: cell-based; details: Supplementary Fig. 13c
Protocol: (§1) To characterize the sensitivity and specificity of LHGFR expressed in E. coli BL21(DE3), 90 μL cell suspensions following 8 h carbon starvation were mixed with 10 μL increasing concentrations of L-2-HG or other compounds, and then added into a black 96-well plate (total 100 μL/per well), the fluorescence intensities were determined using an EnSight microplate reader (PerkinElmer, USA) and the following instrument settings: excitation at 430 nm, emission at 485 nm (mTFP) and 528 nm (Venus), time intervals of 5 min, the temperature at 37 °C, and shake at 180 rpm.

[2] = test system: LHGFR3N7C expressed in E. coli BL21(DE3); test: Control biosensor LHGFR3N7C expressed in E. coli, response to added compounds; assay type: cell-based; details: Supplementary Fig. 14a
Protocol: as §1

[3] = test system: LHGFR0N3C expressed in HEK293FT cells; test: Specificity of LHGFR0N3C expressed in permeabilized HEK293FT cells, 1 mM compounds; assay type: cell-based, human (HEK293FT cells)
Protocol: (§2) To characterize the sensitivity and specificity of LHGFR expressed in HEK293FT cells, cells were trypsinized 48 h following transfection and suspended in 1× Hank’s balanced salt solution supplemented with 20 mM HEPES. […] Digitonin at a concentration of 10 μM was used to induce cell permeabilization and deplete intracellular L-2-HG for in vivo response curves construction. Then, the fluorescence intensities were determined by a SpectraMax i3 fluorescence plate reader (Molecular Devices, USA) with excitation at 430 nm and emission at 485 nm (mTFP) and 528 nm (Venus). Basal L-2-HG concentration in HEK293FT cells under physiological conditions was determined by substituting the emission ratios of non-permeabilized HEK293FT cells into the calibrated in vivo response curves.

[4] = test system: LHGFR0N7C expressed in HEK293FT cells; test: Specificity of LHGFR0N7C expressed in permeabilized HEK293FT cells, 1 mM compounds; assay type: cell-based, human (HEK293FT cells); details: Supplementary Fig. 17d; Control about 1
Protocol: as §2

Structure (SMILES): O=C(O)CC[C@H](O)C(=O)O [L-2-HG, L-2-Hydroxyglutarate]
- Emission ratio of 528/485 (LHGFR0N7C; L-2-HG concentration 100, in the absence of D-2-HG, Suppl. Fig. 9f): 2.581 and 2.561 and 2.566
- Emission ratio of 528/485 (LHGFR0N7C; L-2-HG concentration 100, in the presence of 2-KG, Suppl. Fig. 9h): 2.5747 and 2.606 and 2.576
- Emission ratio of 528/485 (LHGFR0N7C; L-2-HG concentration 100, in the presence of D-2-HG, Suppl. Fig. 9f): 2.5851 and 2.631 and 2.587
- Emission ratio of 528/485 (LHGFR0N7C; L-2-HG concentration 200, in the absence of 2-KG, Suppl. Fig. 9h): 2.539 and 2.563 and 2.555
- Emission ratio of 528/485 (LHGFR0N7C; L-2-HG concentration 200, in the absence of D-2-HG, Suppl. Fig. 9f): 2.5575 and 2.555 and 2.59
- Emission ratio of 528/485 (LHGFR0N7C; L-2-HG concentration 200, in the presence of 2-KG, Suppl. Fig. 9h): 2.617 and 2.618 and 2.612
- Emission ratio of 528/485 (LHGFR0N7C; L-2-HG concentration 200, in the presence of D-2-HG, Suppl. Fig. 9f): 2.597 and 2.613 and 2.641
- Emission ratio of 528/485 (LHGFR0N7C; L-2-HG concentration 1000, in the absence of 2-KG, Suppl. Fig. 9h): 2.624 and 2.621 and 2.641
- Emission ratio of 528/485 (LHGFR0N7C; L-2-HG concentration 1000, in the absence of D-2-HG, Suppl. Fig. 9f): 2.621 and 2.615 and 2.63
- Emission ratio of 528/485 (LHGFR0N7C; L-2-HG concentration 1000, in the presence of 2-KG, Suppl. Fig. 9h): 2.674 and 2.614 and 2.6567
- Emission ratio of 528/485 (LHGFR0N7C; L-2-HG concentration 1000, in the presence of D-2-HG, Suppl. Fig. 9f): 2.625 and 2.6112 and 2.6354
- Emission ratio of 528/485 (LHGFR0N7C; L-2-HG concentration 2000, in the absence of 2-KG, Suppl. Fig. 9h): 2.674 and 2.655 and 2.638
- Emission ratio of 528/485 (LHGFR0N7C; L-2-HG concentration 2000, in the absence of D-2-HG, Suppl. Fig. 9f): 2.642 and 2.658 and 2.618
- Emission ratio of 528/485 (LHGFR0N7C; L-2-HG concentration 2000, in the presence of 2-KG, Suppl. Fig. 9h): 2.683 and 2.662 and 2.678
- Emission ratio of 528/485 (LHGFR0N7C; L-2-HG concentration 2000, in the presence of D-2-HG, Suppl. Fig. 9f): 2.621 and 2.633 and 2.649
- Emission ratio (LHGFR0N7C; Suppl. Fig. 9b, L-2-HG alone or with the compound, three replicates): 2.613 and 2.611 and 2.604
- normalized emission ratio of biosensor expressed in E. coli ([1]; time 0 min): 1.016 and 1.006 and 1.026
- normalized emission ratio of biosensor expressed in E. coli ([1]; time 5 min): 1.0991 and 1.081 and 1.1
- normalized emission ratio of biosensor expressed in E. coli ([1]; time 10 min): 1.206 and 1.179 and 1.184
- normalized emission ratio of biosensor expressed in E. coli ([1]; time 15 min): 1.293 and 1.273 and 1.276
- normalized emission ratio of biosensor expressed in E. coli ([1]; time 20 min): 1.341 and 1.328 and 1.319
- normalized emission ratio of biosensor expressed in E. coli ([1]; time 25 min): 1.35 and 1.357 and 1.333
- normalized emission ratio of biosensor expressed in E. coli ([1]; time 30 min): 1.374 and 1.365 and 1.366
- normalized emission ratio of biosensor expressed in E. coli ([1]; time 35 min): 1.386 and 1.367 and 1.374
- normalized emission ratio of biosensor expressed in E. coli ([1]; time 40 min): 1.391 and 1.384 and 1.386
- normalized emission ratio of biosensor expressed in E. coli ([1]; time 45 min): 1.414 and 1.39 and 1.389
- normalized emission ratio of biosensor expressed in E. coli ([1]; time 50 min): 1.407 and 1.378 and 1.396
- normalized emission ratio of biosensor expressed in E. coli ([1]; time 55 min): 1.415 and 1.39 and 1.4085
- normalized emission ratio of biosensor expressed in E. coli ([1]; time 60 min): 1.43 and 1.394 and 1.408
- normalized emission ratio of biosensor expressed in E. coli ([1]; time 65 min): 1.417 and 1.4114 and 1.411
- normalized emission ratio of biosensor expressed in E. coli ([1]; time 70 min): 1.41 and 1.402 and 1.422
- normalized emission ratio of biosensor expressed in E. coli ([1]; time 75 min): 1.393 and 1.405 and 1.423
- normalized emission ratio of biosensor expressed in E. coli ([1]; time 80 min): 1.412 and 1.416 and 1.423
- normalized emission ratio of biosensor expressed in E. coli ([1]; time 85 min): 1.389 and 1.408 and 1.4341
- normalized emission ratio of biosensor expressed in E. coli ([1]; time 90 min): 1.404 and 1.406 and 1.429
- normalized emission ratio of control biosensor expressed in E. coli ([2]; time 0 min): 1.025 and 0.9958 and 0.9991 and 1.005
- normalized emission ratio of control biosensor expressed in E. coli ([2]; time 5 min): 1.029 and 0.9977 and 0.9908 and 1.001
- normalized emission ratio of control biosensor expressed in E. coli ([2]; time 10 min): 1.016 and 0.9993 and 0.9928 and 0.996
- normalized emission ratio of control biosensor expressed in E. coli ([2]; time 15 min): 1.012 and 0.9858 and 0.9895 and 0.9948
- normalized emission ratio of control biosensor expressed in E. coli ([2]; time 20 min): 1.006 and 0.9892 and 0.9883 and 1.004
- normalized emission ratio of control biosensor expressed in E. coli ([2]; time 25 min): 1.005 and 0.9958 and 0.9871 and 1.006
- normalized emission ratio of control biosensor expressed in E. coli ([2]; time 30 min): 1.009 and 0.9836 and 0.9873 and 0.9978
- normalized emission ratio of control biosensor expressed in E. coli ([2]; time 35 min): 1.002 (2×) and 0.988 and 0.9805
- normalized emission ratio of control biosensor expressed in E. coli ([2]; time 40 min): 1.005 and 0.9884 and 0.9838 and 1.008
- normalized emission ratio of control biosensor expressed in E. coli ([2]; time 45 min): 1.011 and 0.9924 and 0.993 and 1.004
- normalized emission ratio of control biosensor expressed in E. coli ([2]; time 50 min): 0.997 and 0.991 and 0.9858 and 1.009
- normalized emission ratio of control biosensor expressed in E. coli ([2]; time 55 min): 1.0056 and 0.9921 and 0.9909 and 1.012
- normalized emission ratio of control biosensor expressed in E. coli ([2]; time 60 min): 1.003 and 0.9967 and 0.9937 and 1.007
- normalized emission ratio of control biosensor expressed in E. coli ([2]; time 65 min): 0.9962 (2×) and 0.991 and 1.017
- normalized emission ratio of control biosensor expressed in E. coli ([2]; time 70 min): 1.013 and 1.001 and 0.9947 and 1.016
- normalized emission ratio of control biosensor expressed in E. coli ([2]; time 75 min): 1.004 and 0.9948 and 0.9987 and 1.025
- normalized emission ratio of control biosensor expressed in E. coli ([2]; time 80 min): 1.011 and 1.0052 and 1.01 and 1.025
- normalized emission ratio of control biosensor expressed in E. coli ([2]; time 85 min): 1.015 and 0.9941 and 1.005 and 1.023
- normalized emission ratio of control biosensor expressed in E. coli ([2]; time 90 min): 1.028 and 1.011 and 1.01 and 1.022
- Increase of the emission ratio of LHGFR0N3C ([3]; 10 μM digitonin-permeabilized HEK293FT cells): Only exogenous L-2-HG could significantly increase the emission ratio
- Normalized emission ratio ([3]; 1 mM compound, cells permeabilized with 10 μM digitonin, normalized to control): 1.418 and 1.367 and 1.404
- Normalized emission ratio [4]: 1.4262 and 1.43 and 1.452
